These results are taken from US20200362174A1, “COMPOUNDS AND METHODS FOR OPTICAL SENSING OF ELECTRICAL ACTIVITY IN BIOLOGICAL SYSTEMS” (UNIVERSITY OF CONNECTICUT, priority 2018, published 2020).

Molecules are shown by their SMILES. Where “and” joins values, the source holds several entries; their conditions need not be identical. Equal entries are not always repeated. Entries after “also recorded” stand apart in the source; their conditions may differ. Structures can show the parent of a compound that is named as a salt.

Data set [1] can be described thus: voltage sensitivity testing on the voltage clamped hemispherical lipid bilayer (HLB) apparatus.
Data set [2] is described as follows: water solubility / deliverability to membranes (in words). The format is physicochemical. As to conditions: delivery to the membrane.

Turning to `CC[N+](CC)(CC)CCC[n+]1ccc(/C=C/c2ccc3cc(N(C)CCCCCCCCCCCCNC(=O)CCCCCCCCCCCNC(=O)CCc4c([N+](=O)[O-])cc([N+](=O)[O-])c(Nc5c([N+](=O)[O-])cc([N+](=O)[O-])cc5[N+](=O)[O-])c4[N+](=O)[O-])ccc3c2)cc1` [TBFQ 15], the “ΔF/F per 100 mV” value in data set [1] (no dynamic range printed, electrochromic behavior) was 8% and 8 ± 3%.
For the molecule `CCCCN(CCCC)c1ccc2cc(C=Cc3cc[n+](CCCS(=O)(=O)[O-])cc3)ccc2c1` [Di-4-ANEPPS, 4-(2-(6-(dibutylamino)-2-naphthalenyl)ethenyl)-1-(3-sulfopropyl)pyridinium hydroxide inner salt, reference compound], the “voltage sensitivity / voltage dependence in words” value in data set [1] is reported as “approximately linear voltage dependence”. In data set [1] (approximately linear over a broad range of applied voltage), this molecule displayed a voltage sensitivity of 12 %/100 mV.
Regarding `CN(CCCCCCCCCCCCNC(=O)CCCCCCCCCCCNC(=O)CCc1c([N+](=O)[O-])cc([N+](=O)[O-])c(Nc2c([N+](=O)[O-])cc([N+](=O)[O-])cc2[N+](=O)[O-])c1[N+](=O)[O-])c1ccc2cc(/C=C/c3cc[n+](CCCCS(=O)(=O)[O-])cc3)ccc2c1` [PY6256], the “ΔF/F per 100 mV in Dynamic Range (mV)” value worked out at 39% in data set [1] (dynamic range [0, 100] mV) and 24% in data set [1] (dynamic range [−100, 0] mV).
Regarding `CC[N+](CC)(CC)CCC[n+]1ccc(/C=C/c2ccc3cc(N(C)CCCCCCCCCCCCNC(=O)CCCCCCCCCCCNC(=O)COCCOCCNC(=O)CCc4c([N+](=O)[O-])cc([N+](=O)[O-])c(Nc5c([N+](=O)[O-])cc([N+](=O)[O-])cc5[N+](=O)[O-])c4[N+](=O)[O-])ccc3c2)cc1` [TBFQ 17], in data set [1], the “voltage sensitivity / voltage dependence in words” value is reported as “better sensitivity than TBFQ 16; also recorded: responses in the physiological range that are larger than any previous fast VSDs”, the “τ-off” value amounted to 7 ± 2 ms and the “τ-on” value was 12 ± 2 ms. Moreover, the “ΔF/F per 100 mV in Dynamic Range (mV)” value in data set [1] (dynamic range [−100, 0] mV) was 66 ± 15%.
For the molecule `CC[N+](CC)(CC)CCC[n+]1ccc(/C=C/c2ccc3cc(N(C)CCOCCOCCNC(=O)CCCCCCCCCCCNC(=O)COCCOCCNC(=O)CCc4c([N+](=O)[O-])cc([N+](=O)[O-])c(Nc5c([N+](=O)[O-])cc([N+](=O)[O-])cc5[N+](=O)[O-])c4[N+](=O)[O-])ccc3c2)cc1` [TBFQ 16], in data set [1], the “voltage sensitivity / voltage dependence in words” value is listed as “high voltage sensitivity”, the “τ-off” value was found to be 5 ± 1 ms and the “τ-on” value is 11 ± 2 ms. Besides, the “change in fluorescence/100 mV” value in data set [1] ([…], dye on the inside, 20 ms voltage steps) turned out to be 36%. In addition, in data set [1] (dynamic range [−200, −100] mV), the “ΔF/F per 100 mV in Dynamic Range (mV)” value is recorded as 56 ± 13%.
Take `CN(CCCCCCCCCCCCNC(=O)CCCCCCCCCCCNC(=O)COCCOCCNC(=O)CCc1c([N+](=O)[O-])cc([N+](=O)[O-])c([N-]c2c([N+](=O)[O-])cc([N+](=O)[O-])cc2[N+](=O)[O-])c1[N+](=O)[O-])c1ccc2cc(/C=C/c3cc[n+](CCOCCOCCO)cc3)ccc2c1` [PY6242]: in data set [2], the solubility in words entry was “Low solubility”.
